{
  "source": "patent US9999656B2",
  "about": "“Treatment of short bowel syndrome patients with colon-in-continuity” (Shire-NPS Pharmaceuticals, Inc., priority 2004, dated 2018)",
  "tested_on": "patients with short bowel syndrome (SBS)",
  "experiment": "72-hour nutrient balance studies in open-label pilot study of teduglutide",
  "type": "in vivo, human",
  "procedure": "This was an open-label, pilot study to determine the safety and effect of teduglutide in patients with short bowel syndrome (SBS). The patient's history was reviewed and a physical examination performed to determine eligibility before inclusion in the study. Estimated residual small intestine and colon lengths were determined by reviewing operative reports and available radiographic studies. Eligible patients were admitted as inpatients to hospital wards or General Clinic Research Centers (GCRC) on three separate occasions, 18 days apart, for the last four days and three nights of the baseline period and at the end of the treatment and follow-up periods. Treatment consisted of recombinant teduglutide (supplied by NPS Allelix, Mississauga, ON, Canada) formulated as a lyophilized powder with L-histidine, mannitol, and monobasic and dibasic sodium phosphate (Lot 8502901). Water was added to reconstitute the drug for administration by subcutaneous (s.c.) injections in the abdomen or thigh. Ten SBS patients with jejunostomy received 0.03 mg/kg/d, 0.10 mg/kg/d or 0.15 mg/kg/d once daily for 21 days. Five SBS patients with ≥50% colon-in-continuity received teduglutide 0.10 mg/kg/d once daily for 21 days.\nThe 72-hour nutrient balance studies were completed with each patient eating their usual diet, calculated from a seven-day food diary completed by the patient during the screening period. It was intended that patients eat the same quantity and quality of food and beverages during each admission. During the 72-hour balance periods, all oral intake (duplicate meals and beverages and declined food), fecal/stomal output, and urine were collected and weighed. All stool samples were refrigerated during the collection period. Stools and diets were separately homogenized and analyzed for energy content (by bomb calorimetry), nitrogen (by the macro-Kjeldahl's method), fat (by the gravimetric technique), and sodium and potassium (by atomic absorption).\nUsing the SAS (Version 8.2; SAS Institute, Cary, N.C.) statistical program, a Student's paired t test was employed that compared treatment to baseline values, and follow-up to baseline values. No comparisons were made between patients on different doses or with different anatomy due to the limited number of patients in the study. Data are expressed as mean±SD. A value of p<0.05 was considered significant.",
  "key": {"[1]": {"conditions": "Group 3 SBS ≥50% colon-in-continuity, N=5, follow-up Days 39-42 vs baseline"}, "[2]": {"conditions": "Group 3 SBS ≥50% colon-in-continuity, of N=5"}, "[3]": {"conditions": "Group 4 SBS high dietary compliance, N=10, 21 days, Days 18-21 vs baseline"}, "[4]": {"conditions": "Group 4 SBS high dietary compliance, N=10, follow-up Days 39-42 vs baseline"}, "[5]": {"conditions": "Group 4 SBS high dietary compliance, of N=10"}},
  "data": [
    {"smiles": "CC[C@H](C)[C@H](NC(=O)[C@H](Cc1ccccc1)NC(=O)[C@H](CC(=O)O)NC(=O)[C@H](CCCNC(=N)N)NC(=O)[C@H](C)NC(=O)[C@H](C)NC(=O)[C@H](CC(C)C)NC(=O)[C@H](CC(N)=O)NC(=O)[C@H](CC(=O)O)NC(=O)[C@H](CC(C)C)NC(=O)[C@@H](NC(=O)[C@@H](NC(=O)[C@H](CC(N)=O)NC(=O)[C@H](CCSC)NC(=O)[C@H](CCC(=O)O)NC(=O)[C@H](CC(=O)O)NC(=O)[C@H](CO)NC(=O)[C@H](Cc1ccccc1)NC(=O)[C@H](CO)NC(=O)CNC(=O)[C@H](CC(=O)O)NC(=O)CNC(=O)[C@@H](N)Cc1c[nH]cn1)[C@@H](C)O)[C@@H](C)CC)C(=O)N[C@@H](CC(N)=O)C(=O)N[C@@H](Cc1c[nH]c2ccccc12)C(=O)N[C@@H](CC(C)C)C(=O)N[C@H](C(=O)N[C@@H](CCC(N)=O)C(=O)N[C@H](C(=O)N[C@@H](CCCCN)C(=O)N[C@H](C(=O)N[C@H](C(=O)N[C@@H](CC(=O)O)C(=O)O)[C@@H](C)O)[C@@H](C)CC)[C@@H](C)O)[C@@H](C)CC", "note": "[teduglutide, [Gly2]hGLP-2]", "values": [
      {"measurement": "Energy Fecal, Effect at Follow up (Follow up minus Baseline) mean ± SD", "setting": "[1]", "result": "-997 ± 1713", "unit": "kJ/day"},
      {"measurement": "Urine Wet Weight, Effect at Follow up (Follow up minus Baseline) mean ± SD", "setting": "[1]", "result": "-90 ± 281", "unit": "g/day"},
      {"measurement": "Wet Weight Absorption (% of intake), Effect at Follow up (Follow up minus Baseline) mean ± SD", "setting": "[1]", "result": "17 ± 30 % of intake"},
      {"measurement": "Wet Weight Absorption, Effect at Follow up (Follow up minus Baseline) mean ± SD", "setting": "[1]", "result": "352 ± 525", "unit": "g/day"},
      {"measurement": "Wet Weight Fecal, Effect at Follow up (Follow up minus Baseline) mean ± SD", "setting": "[1]", "result": "-240 ± 426", "unit": "g/day"},
      {"measurement": "Energy Absorption (% of intake), Patients With Beneficial Effect", "setting": "[2]", "result": 5},
      {"measurement": "Energy Absorption (kJ/day), Patients With Beneficial Effect", "setting": "[2]", "result": 5},
      {"measurement": "Energy Fecal, Patients With Beneficial Effect", "setting": "[2]", "result": 4},
      {"measurement": "Urine Wet Weight, Patients With Beneficial Effect", "setting": "[2]", "result": 5},
      {"measurement": "Wet Weight Absorption (% of intake), Patients With Beneficial Effect", "setting": "[2]", "result": 5},
      {"measurement": "Wet Weight Absorption (g/day), Patients With Beneficial Effect", "setting": "[2]", "result": 5},
      {"measurement": "Wet Weight Fecal, Patients With Beneficial Effect", "setting": "[2]", "result": 5},
      {"measurement": "decrease in fecal wet weight compared to baseline", "setting": "Group 3 SBS ≥50% colon-in-continuity, 21-day treatment, stated as decrease", "result": "822 ± 341", "unit": "g/day"},
      {"measurement": "Energy Absorption (% of intake), Effect of Treatment (Treatment minus Baseline) mean ± SD", "setting": "[3]", "result": "8±11 % of intake"},
      {"measurement": "Energy Absorption, Effect of Treatment (Treatment minus Baseline) mean ± SD", "setting": "[3]", "result": "963 ± 1290", "unit": "kJ/day"},
      {"measurement": "Energy Fecal, Effect of Treatment (Treatment minus Baseline) mean ± SD", "setting": "[3]", "result": "-1060 ± 1083", "unit": "kJ/day"},
      {"measurement": "Urine Wet Weight, Effect of Treatment (Treatment minus Baseline) mean ± SD", "setting": "[3]", "result": "725 ± 394", "unit": "g/day"},
      {"measurement": "Wet Weight Absorption (% of intake), Effect of Treatment (Treatment minus Baseline) mean ± SD", "setting": "[3]", "result": "23 ± 16 % of intake"},
      {"measurement": "Wet Weight Absorption, Effect of Treatment (Treatment minus Baseline) mean ± SD", "setting": "[3]", "result": "746 ± 436", "unit": "g/day"},
      {"measurement": "Wet Weight Fecal, Effect of Treatment (Treatment minus Baseline) mean ± SD", "setting": "[3]", "result": "-769 ± 447", "unit": "g/day"},
      {"measurement": "Energy Absorption (% of intake), Effect at Follow up (Follow up minus Baseline) mean ± SD", "setting": "[4]", "result": "3 ± 16 % of intake"},
      {"measurement": "Energy Absorption, Effect at Follow up (Follow up minus Baseline) mean ± SD", "setting": "[4]", "result": "452 ± 1211", "unit": "kJ/day"},
      {"measurement": "Energy Fecal, Effect at Follow up (Follow up minus Baseline) mean ± SD", "setting": "[4]", "result": "-98 ± 1674", "unit": "kJ/day"},
      {"measurement": "Urine Wet Weight, Effect at Follow up (Follow up minus Baseline) mean ± SD", "setting": "[4]", "result": "30 ± 285", "unit": "g/day"},
      {"measurement": "Wet Weight Absorption (% of intake), Effect at Follow up (Follow up minus Baseline) mean ± SD", "setting": "[4]", "result": "0 ± 27 % of intake"},
      {"measurement": "Wet Weight Absorption, Effect at Follow up (Follow up minus Baseline) mean ± SD", "setting": "[4]", "result": "24 ± 576", "unit": "g/day"},
      {"measurement": "Wet Weight Fecal, Effect at Follow up (Follow up minus Baseline) mean ± SD", "setting": "[4]", "result": "93 ± 500", "unit": "g/day"},
      {"measurement": "Energy Absorption (% of intake), Patients With Beneficial Effect", "setting": "[5]", "result": 9},
      {"measurement": "Energy Absorption (kJ/day), Patients With Beneficial Effect", "setting": "[5]", "result": 9},
      {"measurement": "Energy Fecal, Patients With Beneficial Effect", "setting": "[5]", "result": 8},
      {"measurement": "Urine Wet Weight, Patients With Beneficial Effect", "setting": "[5]", "result": 10},
      {"measurement": "Wet Weight Absorption (% of intake), Patients With Beneficial Effect", "setting": "[5]", "result": 9},
      {"measurement": "Wet Weight Absorption (g/day), Patients With Beneficial Effect", "setting": "[5]", "result": 9},
      {"measurement": "Wet Weight Fecal, Patients With Beneficial Effect", "setting": "[5]", "result": 9},
      {"measurement": "decrease in fecal energy excretion compared to baseline", "setting": "Group 4 SBS high dietary compliance, stated as reduction", "result": "1060 ± 1083", "unit": "kJ/day"},
      {"measurement": "improved wet weight absorption", "setting": "SBS patient population", "result": 0.75, "unit": "L"},
      {"measurement": "effect on absolute energy absorption relative to native GLP-2", "setting": "at the given doses and treatment periods", "result": "1.5 to 4", "unit": "fold"},
      {"measurement": "reversal of changes at follow-up", "setting": "follow-up after cessation of dosing", "result": "Most changes in intestinal absorption and histology related to teduglutide treatment had reversed at follow-up"},
      {"measurement": "effects on wet weight absorption relative to native GLP-2 pilot study", "setting": "in vivo", "result": "almost two-fold"},
      {"measurement": "number of SBS patients in whom absolute wet weight absorption increased as a percent of intake", "setting": "of 15 SBS patients", "result": 13},
      {"measurement": "number of SBS patients with decreases in energy excretion", "setting": "of 15 SBS patients", "result": 12},
      {"measurement": "number of SBS patients with increased absolute wet weight absorption compared to baseline", "setting": "of 15 SBS patients", "result": 15},
      {"measurement": "number of SBS patients with increased urine weight", "setting": "of 15 SBS patients", "result": 13}
    ]}
  ]
}
